This data set relates to rodent lifetime carcinogenesis bioassay, tumor incidence TD50. Kind of data set: carcinogenic potency in animals, long-term in vivo studies, CPDB compilation (AID 1745844).

The values that follow come from PubChem BioAssay AID1745844 (Carcinogenic Potency Database (CPDB), 2022).

Several values for one entry are separate records, joined by “and”; a condition that tells them apart may be missing. Equal values may be shown once. Activity calls are given as the source filed them. How the calls were made is not given here.

As to `CC(C)CCCCCCOC(=O)c1ccccc1C(=O)OCCCCCCC(C)C`, the TD50 (commonly the 50% point of the dose-response relation for the toxic effect studied) reads like this: (mouse, strain B6C3F1, females, in feed, site: liver, lesion: hepatocellular carcinoma, dosed 78 weeks, study length 104 weeks) 3340 mg/kg/day; (mouse, strain B6C3F1, females, in feed, site: liver, lesion: hepatocellular carcinoma, dosed 79 weeks, study length 79 weeks) 5240 mg/kg/day; (mouse, strain B6C3F1, females, in feed, site: liver, lesion: hepatocellular carcinoma, dosed 104 weeks, study length 104 weeks) 2620 mg/kg/day; (mouse, strain B6C3F1, females, in feed, site: liver, lesion: several types, types named in the paper, dosed 79 weeks, study length 79 weeks) 2860 mg/kg/day; (mouse, strain B6C3F1, females, in feed, site: liver, lesion: several types, types named in the paper, dosed 104 weeks, study length 104 weeks) 1440 mg/kg/day; (mouse, strain B6C3F1, males, in feed, site: liver, lesion: hepatocellular carcinoma, dosed 78 weeks, study length 104 weeks) 4100 mg/kg/day. The TD50 is, setting by setting: (mouse, strain B6C3F1, males, in feed, site: liver, lesion: hepatocellular carcinoma, dosed 79 weeks, study length 79 weeks) 1460 mg/kg/day; (mouse, strain B6C3F1, males, in feed, site: liver, lesion: hepatocellular carcinoma, dosed 104 weeks, study length 104 weeks) 2920 mg/kg/day; (mouse, strain B6C3F1, males, in feed, site: liver, lesion: several types, types named in the paper, dosed 79 weeks, study length 79 weeks) 1460 mg/kg/day; (mouse, strain B6C3F1, males, in feed, site: liver, lesion: several types, types named in the paper, dosed 104 weeks, study length 104 weeks) 1590 mg/kg/day; (rat, strain Fischer 344, females, in feed, site: all sites, lesion: mononuclear-cell leukemia, dosed 78 weeks, study length 104 weeks) 1140 mg/kg/day; (rat, strain Fischer 344, females, in feed, site: all sites, lesion: mononuclear-cell leukemia, dosed 79 weeks, study length 79 weeks) 1690 mg/kg/day. The TD50 is 458 mg/kg/day and 1150 mg/kg/day (rat, strain Fischer 344, females, in feed, site: all sites, lesion: mononuclear-cell leukemia, dosed 104 weeks, study length 104 weeks); 3440 mg/kg/day (rat, strain Fischer 344, females, in feed, site: liver, lesion: hepatocellular adenoma, dosed 79 weeks, study length 79 weeks); 14300 mg/kg/day (rat, strain Fischer 344, females, in feed, site: liver, lesion: hepatocellular carcinoma, dosed 78 weeks, study length 104 weeks); 7980 mg/kg/day (rat, strain Fischer 344, females, in feed, site: liver, lesion: hepatocellular carcinoma, dosed 104 weeks, study length 104 weeks); 445 mg/kg/day (rat, strain Fischer 344, males, in feed, site: all sites, lesion: mononuclear-cell leukemia, dosed 78 weeks, study length 104 weeks); 2960 mg/kg/day (rat, strain Fischer 344, males, in feed, site: kidney, lesion: tubular carcinoma, dosed 78 weeks, study length 104 weeks). For the same molecule, the TD50 by setting is: (rat, strain Fischer 344, males, in feed, site: kidney, lesion: tubular carcinoma, dosed 104 weeks, study length 104 weeks) 17200 mg/kg/day; (rat, strain Fischer 344, males, in feed, site: liver, lesion: hepatocellular carcinoma, dosed 78 weeks, study length 104 weeks) 9740 mg/kg/day; (rat, strain Fischer 344, males, in feed, site: liver, lesion: hepatocellular carcinoma, dosed 79 weeks, study length 79 weeks) 2750 mg/kg/day; (rat, strain Fischer 344, males, in feed, site: liver, lesion: hepatocellular carcinoma, dosed 104 weeks, study length 104 weeks) 2640 mg/kg/day.

In the case of `CC(O)CN(C)c1ccc(NN)nn1` (centres undefined), the TD50 by setting is: (mouse, strain B6C3F1, females, in drinking water, site: liver, lesion: several types, types named in the paper, dosed 80 weeks, study length 123 weeks) 503 mg/kg/day (inactive); (mouse, strain B6C3F1, males, in drinking water, site: liver, lesion: several types, types named in the paper, dosed 80 weeks, study length 123 weeks) 922 mg/kg/day (inactive); (mouse, strain BALB/cLacDp, females, in drinking water, site: all sites, lesion: lymphoma, dosed 80 weeks, study length 123 weeks) 408 mg/kg/day (inactive). The carcinogen call by setting is: (mouse, strain B6C3F1, females, in drinking water, site: lung, lesion: several types, types named in the paper, dosed 80 weeks, study length 123 weeks) “negative (inactive)”; (mouse, strain B6C3F1, males, in drinking water, site: lung, lesion: several types, types named in the paper, dosed 80 weeks, study length 123 weeks) “negative (inactive)”; (mouse, strain BALB/cLacDp, females, in drinking water, site: liver, lesion: hepatocellular adenoma, dosed 80 weeks, study length 123 weeks) “negative (inactive)”; (mouse, strain BALB/cLacDp, females, in drinking water, site: lung, lesion: several types, types named in the paper, dosed 80 weeks, study length 123 weeks) “negative (inactive)”.
